# According to US6013626A (priority 1995, dated 2000):
# Assays:
# SKOV3 cells = test: Reversibility of inhibition of SKOV3 cell proliferation; type: cell-based, human; conditions: SKOV3 cells treated 24 hours with IC50 dose, then drug-free medium
# Experimental: After 24 hours the cells were washed and incubated in drug-free medium for the time indicated. The cell density was determined by sulforhodamine B (SRB) staining as described in the Experimental Section, and is expressed as the mean ± sd adsorbance at 560 nm for triplicate samples in one of three experiments.
# [1] = test system: A-10 rat aortic smooth muscle cells; type: cell-based
# Experimental: A-10 cells were grown to near-confluency on glass coverslips in BME/10% FBS. Compounds in PBS were added to the indicated final concentrations and cells were incubated for an additional 24 hours. For the staining of microtubules and intermediate filaments, the cells were fixed with cold methanol and incubated with PBS containing 10% calf serum to block nonspecific binding sites. Cells were then incubated at 37° C. for 60 min with either monoclonal anti-β-tubulin or with monoclonal anti-vimentin at dilutions recommended by the manufacturer. Bound primary antibodies were subsequently visualized by a 45-minute incubation with fluorescein-conjugated rabbit antimouse IgG. The coverslips were mounted on microscope slides and the fluorescence patterns were examined and photographed using a Zeiss Photomicroscope I11 equipped with epifluoroescence optics for fluorescein. […] PBS containing 100 nM TRITC-phalloidin was then added and the mixture was allowed to incubate for 45 min at 37° C. The cells were washed rapidly three times with PBS before the coverslips were mounted and immediately photographed as described above.
# After 24 hours, microtubules and vimentin intermediate filaments were visualized by indirect immunofluorescence and microfilaments were stained using TRITC-phalloidin. The morphological effects of each drug were examined.
# After 24 hours, microtubule organization was examined by immunofluorescence as described above.
# The cells were then washed and incubated in drug-free medium for periods of 1 hour or 24 hours.
smiles,measurement,setting,value
CC[C@]1(O)C[C@@H]2CN(CCc3c([nH]c4ccccc34)[C@@](C(=O)OC)(c3cc4c(cc3OC)N(C)[C@H]3[C@@](O)(C(=O)OC)[C@H](OC(C)=O)[C@]5(CC)C=CCN6CC[C@]43[C@@H]65)C2)C1 [Vinblastine],increase in cell number in the 24 hours following removal of the drug,SKOV3 cells,approximately 3 fold
same,effect on taxol-stabilized microtubules,"[1]; A-10 cells pretreated 3 hours with 10 μM taxol, then 100 nM vinblastine or 10 nM cryptophycin compound, 24 hours",pretreatment with taxol prevented microtubule depolymerization
same,effect on vimentin intermediate filaments,"[1]; A-10 cells, 24 hours, 100 nM vinblastine or 10 nM cryptophycin compounds",vimentin intermediate filaments collapsed
same,effect on microtubules,"[1]; A-10 cells, 24 hours, 2 μM cytochalasin B, 100 nM vinblastine or 10 nM cryptophycin compounds",marked depletion of microtubles
same,reversibility of microtubule depolymerization after removal of compound,"[1]; A-10 cells, 24 hr with 100 nM vinblastine or 10 nM cryptophycins, then drug-free medium 1 hour or 24 hours",complete morphological recovery by 24 hour
